Measurements published in article PMC8777613, “Effect of Hydroxyl Groups Esterification with Fatty Acids on the Cytotoxicity and Antioxidant Activity of Flavones” (Molecules, 2022).
Like-named read-outs stand apart in the source and are kept apart here. One block for each molecule: values may come before it.

Key:
[1] = system: human prostate cancer cells (PC3); assay: MTT dye reduction viability test, PC3; format: cell-based; settings: for IC50 / viability at 10 µM / viability at 20 µM / viability at 40 µM / viability at 60 µM / viability at 80 µM / viability at 100 µM: Homo sapiens; for IC50: 72 h exposure, MTT, mean ± SD, read-out: Cytotoxic activity IC50, PC3; for viability at 10 µM: PC3, 10 µM; for viability at 20 µM: PC3, 20 µM; for viability at 40 µM: PC3, 40 µM; for viability at 60 µM: PC3, 60 µM; for viability at 80 µM: PC3, 80 µM
Protocol: (§1) We have chosen two types of cell culture lines: human prostate cancer cells (PC3) and normal human immortal keratinocyte cells (HaCaT) (Table 1).
(§2) Human prostate cancer cells (PC3) and human immortal keratinocyte cell line from adult human skin (HaCaT) were obtained from American Type Culture Collection (Teddington, UK) and cultured according to its instructions RPMI 1640 (L0490) medium or DMEM (L0102) medium, respectively, in a 95% air and 5% CO2 humidified incubator at 37 °C. Both media (Biowest) were supplemented with 10% fetal bovine serum (FBS), 100 U/mL penicillin and 100 μg/mL streptomycin. 10 mM stock solutions of tested compounds in DMSO were prepared.
(§3) To assess the cells growth inhibition, the MTT dye reduction test was preformed based on the method described by Präbst et al.. Both PC3 and HaCaT cells (1 × 10^3/well) were seeded into 96-well plates and incubated for 24 h to attach to the bottom of the well in appropriate medium (200 μL) and treated with tested compounds (0–100 μM). The medium with compounds was removed after 72 h and MTT (0.5 mg/mL) in fresh growth medium without serum was added to each well. The plates were incubated in dark for 4 h at 37 °C. Then, the solution in each well was removed and refilled with 100 μL DMSO: isopropanol (1:1) to dissolve formazon crystals. The optical density was measured with an UVM 340 (ASYS Hitech GmbH, Austria) microplate reader at 570 nm. Replicates of three wells for each dosage, including vehicle control, were analyzed for each experiment. The experiments were conducted in triplicate. The results are expressed as IC50 values. The value of IC50 was estimated using CompuSyn version 1.0.

rat brain homogenate = assay: Lipid peroxidation (MDA/TBA) induced by FeCl2 and ascorbic acid; format: biochemical; settings: for MDA concentration: oxidation by 0.1% FeCl2 and 1 mM ascorbic acid, 1 h 37 °C, control 9.644 ± 1.570
Protocol: The antioxidant potential of the new flavone derivatives was assessed based on the analysis of malondialdehyde concentration formed as a product of lipid oxidation stimulated by iron (II) ions.
After preparation, the brain was placed on an ice plate and washed with cold 0.9% NaCl. 10% (m/v) brain solution was obtained by homogenization in cold 10 mM TRIS-HCl buffer, pH = 7.5. The homogenate was centrifuged (2000 rpm, 10 min, 4 °C) to obtain supernatant 1 (S1).
100 µM stock solutions of test compounds in DMSO were prepared. The test compound solution was added to a […] S1 homogenate to a final concentration of 10 µM.
The oxidation reaction was induced by adding to the samples with or without the test compounds freshly prepared solutions: 0.1% FeCl2 (0.2 mL) and 1 mM ascorbic acid (0.4 mL). After incubation for 1 h at 37 °C, the reaction was stopped by adding 8.1% sodium dodecyl sulfate (SDS) solution. In order to determine the concentration of MDA, the acetic acid/HCl buffer at pH = 3.4 and 120 μL of 0.8% thiobarbituric acid (TBA) solution at pH = 6 were added to the samples. The samples were incubated for 1 h at 100 °C. After incubation, the samples were cooled on ice and centrifuged for 10 min at 4000 RPM. The absorbance was measured at a wavelength of 532 nm. Blank content: 0.5 mL of acetate buffer + 0.5 mL of TBA solution.
Calculation of malondialdehyde (MDA) concentration (Equation (1)):(1) MDA concentration=∆ A532 nm × 1.56 ×10^−6 [nmol MDA/h/g tissue]

[2] = MTT dye reduction viability test, HaCaT; format: cell-based, human; settings: human, HaCaT cells (immortal keratinocytes); for IC50 at 72 h: 72 h exposure, MTT, mean ± SD, read-out: Cytotoxic activity IC50, HaCaT; for viability at 72 h, 10 µM / viability at 72 h, 20 µM / viability at 72 h, 40 µM / viability at 72 h, 60 µM / viability at 72 h, 80 µM / viability at 72 h, 100 µM: HaCaT
Protocol: as §1, §2, §3

[3] = 72 h, representative MTT result (Table S1 A)
[4] = PC3, 100 µM, 72 h, representative MTT result (Table S1 A), read-out: Cells viability
[5] = 72 h, representative MTT result (Table S1 B)
[6] = 100 µM, 72 h, representative MTT result (Table S1 B), read-out: Cells viability

SMILES: O=C1CC(c2ccccc2)Oc2ccc(O)cc21 (stereo not shown) [6-Hydroxy-Flavanone, 6-hydroxy-flavanone, reference compound]
IC50 [1]: > 100 µM
viability at 10 µM [1, 3]: 96.4%
viability at 20 µM [1, 3]: 96%
viability at 40 µM [1, 3]: 96%
viability at 60 µM [1, 3]: 96.7%
viability at 80 µM [1, 3]: 96.4%
viability at 100 µM [1, 4]: 96.8%
viability at 100 µM ([1]; PC3, 100 μM, 72 h incubation, read-out: cells viability compared to control cells): 89%
MDA concentration (rat brain homogenate; 10 µM compound): 7.077 ± 1.815 mM × 10^−3
reduction of the level of MDA compared to the control sample (rat brain homogenate; 10 µM compound, rat brain homogenate): 26.62%
IC50 at 72 h [2]: > 100 µM
viability at 72 h, 10 µM [2, 5]: 99.7%
viability at 72 h, 20 µM [2, 5]: 115%
viability at 72 h, 40 µM [2, 5]: 113%
viability at 72 h, 60 µM [2, 5]: 104%
viability at 72 h, 80 µM [2, 5]: 72.2%
viability at 72 h, 100 µM [2, 6]: 74.4%
viability at 72 h, 100 µM ([2]; 100 μM, 72 h incubation, read-out: cells viability compared to control cells): 73%

SMILES: CCCCCC=CCC=CCCCCCCCC(=O)Oc1ccc2c(c1)C(=O)CC(c1ccccc1)O2 (stereo not shown) [6-Linoleic-Flavanone, 6-hydroxy-flavanone linoleic ester]
IC50 [1]: 48.3 ± 8.73 µM
viability at 10 µM [1, 3]: 94.7%
viability at 20 µM [1, 3]: 76.5%
viability at 40 µM [1, 3]: 53.3%
viability at 60 µM [1, 3]: 45.4%
viability at 80 µM [1, 3]: 31.2%
viability at 100 µM [1, 4]: 20.2%
IC50 at 72 h [2]: 80 ± 4.75 µM
viability at 72 h, 10 µM [2, 5]: 95.7%
viability at 72 h, 20 µM [2, 5]: 93.8%
viability at 72 h, 40 µM [2, 5]: 86.8%
viability at 72 h, 60 µM [2, 5]: 73.4%
viability at 72 h, 80 µM [2, 5]: 50.3%
viability at 72 h, 100 µM [2, 6]: 34.9%

melting point: 129.4 to 130.8 °C
SMILES: CC=CC=CC(=O)Oc1ccc2c(c1)C(=O)CC(c1ccccc1)O2 (stereo not shown) [6-Sorbic-Flavanone, 6-hydroxy-flavanone sorbic ester]
IC50 [1]: 54.7 ± 5.25 µM
viability at 10 µM [1, 3]: 95.6%
viability at 20 µM [1, 3]: 88.7%
viability at 40 µM [1, 3]: 82.1%
viability at 60 µM [1, 3]: 41.3%
viability at 80 µM [1, 3]: 28.7%
viability at 100 µM [1, 4]: 32.6%
MDA concentration (rat brain homogenate; 10 µM compound): 6.938 ± 0.392 mM × 10^−3
antioxidant potential compared to the original compound (in words) (rat brain homogenate; MDA in rat brain homogenate): slight increase in antioxidant potential
IC50 at 72 h [2]: 79.8 ± 2.21 µM
viability at 72 h, 10 µM [2, 5]: 98.7%
viability at 72 h, 20 µM [2, 5]: 96.7%
viability at 72 h, 40 µM [2, 5]: 89.6%
viability at 72 h, 60 µM [2, 5]: 75.7%
viability at 72 h, 80 µM [2, 5]: 56.7%
viability at 72 h, 100 µM [2, 6]: 31.4%

SMILES: CCCCCC=CCC=CCCCCCCCC(=O)Oc1ccc2c(=O)cc(-c3ccccc3)oc2c1 [7-Linoleic-Flavone, 7-hydroxy-flavone linoleic ester]
IC50 [1]: 41.2 ± 2.3 µM
viability at 10 µM [1, 3]: 84.6%
viability at 20 µM [1, 3]: 70.4%
viability at 40 µM [1, 3]: 46.7%
viability at 60 µM [1, 3]: 35.9%
viability at 80 µM [1, 3]: 34.3%
viability at 100 µM [1, 4]: 39.5%
MDA concentration (rat brain homogenate; 10 µM compound): 8.010 ± 0.008 mM × 10^−3
IC50 at 72 h [2]: 65 ± 4.12 µM
viability at 72 h, 10 µM [2, 5]: 88.4%
viability at 72 h, 20 µM [2, 5]: 73.2%
viability at 72 h, 40 µM [2, 5]: 74.5%
viability at 72 h, 60 µM [2, 5]: 57%
viability at 72 h, 80 µM [2, 5]: 44.6%
viability at 72 h, 100 µM [2, 6]: 34%

SMILES: CCC=CCC=CCC=CCCCCCCCC(=O)Oc1ccc2c(=O)cc(-c3ccccc3)oc2c1 [7-Linolenic-Flavone, 7-hydroxy-flavone linolenic ester]
IC50 [1]: > 100 µM
viability at 10 µM [1, 3]: 90.2%
viability at 20 µM [1, 3]: 86.3%
viability at 40 µM [1, 3]: 81.7%
viability at 60 µM [1, 3]: 79.4%
viability at 80 µM [1, 3]: 86.8%
viability at 100 µM [1, 4]: 86.7%
cytotoxic potential in PC3 cells (in words) ([1]; PC3, 0–100 μM, 72 h): no cytotoxic potential
IC50 at 72 h [2]: 45.4 ± 9.2 µM
viability at 72 h, 10 µM [2, 5]: 106%
viability at 72 h, 20 µM [2, 5]: 90.5%
viability at 72 h, 40 µM [2, 5]: 66%
viability at 72 h, 60 µM [2, 5]: 19.4%
viability at 72 h, 80 µM [2, 5]: 15.8%
viability at 72 h, 100 µM [2, 6]: 14.6%
